{
  "source": "patent US8536407B2",
  "about": "“Heat resistant plants and plant tissues comprising a variant adenosine diphosphate glucose pyrophosphorylase small subunit protein and methods of use thereof” (University of Florida Research Foundation, Inc., priority 2008, dated 2013)",
  "key": {"[1]": {"system": "ADP-glucose pyrophosphorylase (AGPase) MP/SH2, mosaic small subunit MP (first 200 amino acids of maize BT2 and last 275 amino acids of potato tuber small …)", "details": "MP/SH2, varying G-1-P, mean±standard deviation", "quoted_text": "AGPase was desalted by using Zeba Micro Desalt Spin Columns (Pierce) before assaying. AGPase was exchanged into 50 mM HEPES, 5 mM MgCl2, 0.5 mM EDTA and 0.5 mg/mL BSA (for stability).\nThe reaction was stopped by boiling for 2 min. PPi was estimated by coupling the reaction to a reduction in NADH concentration using 300 μl of coupling reagent. The coupling reagent contained 25 mM imidazole pH 7.4, 4 mM MgCl2, 1 mM EDTA, 0.2 mM NADH, 0.725U aldolase, 0.4U triose phosphate isomerase, 0.6U glycerophosphate dehydrogenase, 1 mM fructose 6-phosphate and 0.8 μg of pyrophosphate dependent phosphofructokinase (PPi-PFK). […] NADH concentration was estimated by absorbance at 340 nm. PPi concentration was calculated by a standard curve developed by using various amounts of PPi instead of AGPase. […] The kinetic constants of AGPase were calculated by Prism 4.0 (Graph Pad, San Diego Calif.).\nAll other values are expressed as mean±standard deviation. The specific activity of AGPase in the absence of 3-PGA is expressed as a percentage of the specific activity in the presence of 10 mM of 3-PGA (mean±standard error)."}, "[2]": {"target": "T1, maize endosperm ADP-glucose pyrophosphorylase (AGPase) variant BT2-TI/SH2, small subunit BT2 with Thr462 to Ile (TI, SEQ ID NO:2) complexed with wild type SH2 (Zea mays, UniProt P55241+Q947C0, T462I)", "T1 sequence (Q947C0 1-475 T462I)": "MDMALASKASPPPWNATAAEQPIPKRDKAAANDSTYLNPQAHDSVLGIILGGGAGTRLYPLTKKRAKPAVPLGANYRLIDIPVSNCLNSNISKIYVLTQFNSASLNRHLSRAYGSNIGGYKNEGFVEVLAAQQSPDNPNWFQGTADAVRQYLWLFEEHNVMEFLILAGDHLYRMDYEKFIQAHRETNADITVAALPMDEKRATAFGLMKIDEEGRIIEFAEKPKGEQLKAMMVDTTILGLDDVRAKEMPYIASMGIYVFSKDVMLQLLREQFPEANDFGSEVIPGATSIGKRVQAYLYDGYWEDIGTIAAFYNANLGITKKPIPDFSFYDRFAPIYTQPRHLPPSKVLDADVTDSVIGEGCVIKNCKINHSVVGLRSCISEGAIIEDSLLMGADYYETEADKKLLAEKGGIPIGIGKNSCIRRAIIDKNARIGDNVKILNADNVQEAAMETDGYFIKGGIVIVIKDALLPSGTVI", "T1 sequence (P55241 46-516)": "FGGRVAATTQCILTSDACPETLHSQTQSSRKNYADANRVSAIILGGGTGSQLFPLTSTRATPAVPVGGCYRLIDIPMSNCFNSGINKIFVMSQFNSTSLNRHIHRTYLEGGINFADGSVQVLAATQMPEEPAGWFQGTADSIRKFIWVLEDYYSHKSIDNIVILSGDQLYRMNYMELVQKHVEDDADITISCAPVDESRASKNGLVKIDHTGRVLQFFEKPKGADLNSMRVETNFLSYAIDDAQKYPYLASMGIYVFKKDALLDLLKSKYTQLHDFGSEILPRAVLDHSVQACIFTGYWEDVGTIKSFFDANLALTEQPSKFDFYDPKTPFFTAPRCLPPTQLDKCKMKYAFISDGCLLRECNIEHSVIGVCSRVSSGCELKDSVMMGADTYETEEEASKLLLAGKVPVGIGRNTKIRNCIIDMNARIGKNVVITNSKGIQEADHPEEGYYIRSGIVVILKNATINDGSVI", "test": "Kinetic and allosteric characterization of purified recombinant AGPase, forward direction (BT2-TI/SH2)", "type": "biochemical", "details": "BT2-TI/SH2 versus BT2/SH2", "method": "(§1) The following steps were conducted at 4° C.\n(§2) The reaction was stopped by boiling for 2 min. […] NADH concentration was estimated by absorbance at 340 nm.\nA mutant Bt2 library was created by error-prone PCR. The mutational load was ˜2 non-synonymous mutations per clone (Georgelis et al. 2007). The mutants were expressed in E. coli along with a wildtype Sh2 gene. Approximately 50,000 colonies were screened for glycogen production. Ten dark staining colonies were picked. The two darkest staining Bt2 mutants were sequenced. Both had the same non-synonymous mutation resulting in a change of amino acid 462 from threonine to isoleucine (TI). The threonine in that position is absolutely conserved among the higher plant small subunits (data not shown).\nKi's are expressed as mean (95% confidence interval). All other values are expressed as mean±standard deviation."}, "[3]": {"system": "ADP-glucose pyrophosphorylase (AGPase) variant MP-TI/SH2, maize/potato mosaic small subunit MP with the TI mutation (threonine to isoleucine at position …)", "test": "Kinetic and allosteric characterization of purified recombinant AGPase, forward direction (MP-TI/SH2)", "type": "biochemical, maize (Zea mays) / potato tuber", "method": "as §1, §2\n(§3) All other values are expressed as mean±standard deviation."}, "[4]": {"system": "E. coli cells", "test": "Glycogen produced by E. coli cells expressing AGPase subunits", "type": "cell-based", "details": "subunit expressed with SH2 or alone (homotetramer)", "source_text": "A bacterial expression system (Iglesias et al., 1993) allowed us to randomly mutagenize maize endosperm AGPase genes and score AGPase activity in a fast and efficient way by exposing plates to iodine vapors as described below. The E. coli system is ideal for studying plant AGPases for a number of reasons discussed in Georgelis et al. (2007).\nGlycogen synthesis was detected by production of brown staining colonies following exposure to iodine vapors. […] (Govons et al., 1969). The colonies were exposed to iodine vapors for 1 min. […] AGPase variants staining darker than wildtype were selected for further study.\nGlycogen quantitation was performed by phenol reaction (Hanson and Phillips, 1981). In brief, glycogen was extracted from 1.6 ml of E. coli cells (OD600=2.0) grown in LB containing 2% w/v glucose by boiling for 3 hours in 50% w/v KOH. Glycogen was then precipitated by adding ethanol to 70% v/v and centrifuging at 10000×g for 10 min. After pellet drying, 200 μl de-ionized water, 200 μl of 5% w/v phenol and 1 mL of concentrated sulfuric acid were added. Glycogen was estimated by the absorbance at 488 nm."}, "[5]": {"target": "T2, SH2 (Zea mays, UniProt P55241)", "T2 construct": "expressed in transfected cells", "T2 sequence (P55241 46-516)": "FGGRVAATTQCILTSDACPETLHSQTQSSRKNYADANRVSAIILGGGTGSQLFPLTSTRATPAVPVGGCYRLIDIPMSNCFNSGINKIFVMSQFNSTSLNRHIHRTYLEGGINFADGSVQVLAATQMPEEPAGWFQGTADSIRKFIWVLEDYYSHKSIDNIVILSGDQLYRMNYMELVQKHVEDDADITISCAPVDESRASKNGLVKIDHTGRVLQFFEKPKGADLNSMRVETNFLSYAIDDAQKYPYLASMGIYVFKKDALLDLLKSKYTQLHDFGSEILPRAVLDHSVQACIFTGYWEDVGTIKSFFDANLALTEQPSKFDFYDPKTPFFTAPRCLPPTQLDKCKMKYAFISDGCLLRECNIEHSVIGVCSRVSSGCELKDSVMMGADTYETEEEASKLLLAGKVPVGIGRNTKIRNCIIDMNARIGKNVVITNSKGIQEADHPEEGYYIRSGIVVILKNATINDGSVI", "test": "Yeast two hybrid, quantitative β-galactosidase assay of subunit-subunit interactions", "type": "cell-based, maize", "details": "SH2 as bait, small subunit as prey; listed as TI", "method": "Yeast transformations and a β-galactosidase assay were conducted as described by Greene and Hannah (1998b). The only modification was the use of pGBKT7 and pGADT7 as vectors for the bait and the prey respectively. pGBKT7-53 and pGADT7-T plasmids were used as a positive control."}, "[6]": {"system": "maize endosperm AGPase", "test": "Kinetic characterization of purified recombinant AGPase variants, forward direction", "type": "biochemical", "details": "compared to BT2/SH2", "method": "as §1, §2, §3"}},
  "note": "Entries after “also recorded” stand apart in the source; their conditions may differ.",
  "data": [
    {"molecule": "O=P(O)(O)O[C@H]1O[C@H](CO)[C@@H](O)[C@H](O)[C@H]1O", "note": "[G-1-P, glucose-1-P]", "values": [
      {"measurement": "kcat (G-1-P)", "setting": "[1]; ATP saturating (1 mM)", "value": 62.655, "unit": "s⁻¹"},
      {"measurement": "Km", "setting": "[1]; read-out: Km G-1-P, forward direction, pH 7.4, 37° C.", "value": 79, "unit": "µM"},
      {"measurement": "Km (compared with BT2/SH2, in words)", "setting": "[2]", "value": "indistinguishable from BT2/SH2"},
      {"measurement": "Km", "setting": "[3]; read-out: Km G-1-P, forward direction, pH 7.4, 37° C., varying G-1-P, mean±standard deviation", "value": 59, "unit": "µM"},
      {"measurement": "kcat (G-1-P)", "setting": "[3]; varying G-1-P, ATP saturating (1 mM), mean±standard deviation", "value": 42.880, "unit": "s⁻¹"}
    ]},
    {"molecule": "MP-TI: MP mosaic small subunit with the amino acid change of TI introduced (protein, zea mays MP-TI protein, MP mosaic small subunit with the amino acid change of TI introduced) MDMALASKASPPPWNATAAEQPIPKRDKAAANDSTYLNPQAHDSVLGIILGGGAGTRLYPLTKKRAKPAVPLGANYRLIDIPVSNCLNSNISKIYVLTQFNSASLNRHLSRAYGSNIGGYKNEGFVEVLAAQQSPDNPNWFQGTADAVRQYLWLFEEHNVMEFLILAGDHLYRMDYEKFIQAHRETNADITVAALPMDEKRATAFGLMKIDEEGRIIEFAEKPQGEQLQAMKVDTTILGLDDKRAKEMPFIASMGIYVISKDVMLNLLRDKFPGANDFGSEVIPGATSLGMRVQAYLYDGYWEDIGTIEAFYNANLGITKKPVPDFSFYDRSAPIYTQPRYLPPSKMLDADVTDSVIGEGCVIKNCKIHHSVVGLRSCISEGAIIEDSLLMGADYYETDADRKLLAAKGSVPIGIGKNCHIKRAIIDKNARIGDNVKIINKDNVQEAARETDGYFIKSGIVIVIKDALIPSGIII", "values": [
      {"measurement": "glycogen produced by E. coli cells", "setting": "[4]", "value": "yielded an equal amount of glycogen as MP/SH2"}
    ]},
    {"molecule": "BT2-TI: BT2 small subunit with change of amino acid 462 from threonine to isoleucine (protein, zea mays BT2 protein, BT2 small subunit with change of amino acid 462 from threonine to isoleucine) MDMALASKASPPPWNATAAEQPIPKRDKAAANDSTYLNPQAHDSVLGIILGGGAGTRLYPLTKKRAKPAVPLGANYRLIDIPVSNCLNSNISKIYVLTQFNSASLNRHLSRAYGSNIGGYKNEGFVEVLAAQQSPDNPNWFQGTADAVRQYLWLFEEHNVMEFLILAGDHLYRMDYEKFIQAHRETNADITVAALPMDEKRATAFGLMKIDEEGRIIEFAEKPKGEQLKAMMVDTTILGLDDVRAKEMPYIASMGIYVFSKDVMLQLLREQFPEANDFGSEVIPGATSIGKRVQAYLYDGYWEDIGTIAAFYNANLGITKKPIPDFSFYDRFAPIYTQPRHLPPSKVLDADVTDSVIGEGCVIKNCKINHSVVGLRSCISEGAIIEDSLLMGADYYETEADKKLLAEKGGIPIGIGKNSCIRRAIIDKNARIGDNVKILNADNVQEAAMETDGYFIKGGIVIVIKDALLPSGTVI", "values": [
      {"measurement": "strength of subunit-subunit interactions", "setting": "[5]", "value": "did not increase the strength of subunit-subunit interactions; also recorded: does not strengthen the subunit-subunit interactions"},
      {"measurement": "kcat lower than kcat of BT2/SH2", "setting": "[6]", "value": 30, "unit": "%"}
    ]}
  ]
}
